The values that follow come from patent publication US20210361683A1, “COMPOSITIONS AND METHODS FOR THE TREATMENT OF MUSCLE CONTRACTURES” (Children's Hospital Medical Center, priority 2018, published 2021).

Series [1] is described as follows: Survival / mortality of NBPI mice during treatment. It is filed as in vivo. On the procedure: (§1) Mice were treated either with saline (as the vehicle; 0.9% Sodium Chloride Injection USP, Hospira), [Gly^14]-Humanin G ([Gly14]-HN; 1 μg/dose; H6161, Sigma-Aldrich) alone or co-administered with Bortezomib (0.2-0.4 mg/kg body weight; 5043140001, Sigma-Aldrich) by IP injection starting immediately post-operative or delayed by 3/7 days (P8/12 start), and injected every other day with sacrifice at 4 weeks post-NBPI (24 h following the last IP injection). The use of littermate controls was rejected due to the risk of treatment cross-contamination either through direct contact or by ingestion from their mother, and [Gly14]-HN was included to mitigate the toxicity that has been reported for Bortezomib^47. Deficits in motor function were confirmed as described above, and measurement of shoulder and elbow range of motion was measured immediately post-sacrifice^16 with blinding to the treatment group. Mouse limbs harvested 4 weeks post-NBPI were positioned on cork for processing of bilateral brachialis muscles for DIC microscopy as described above for measurement of muscle sarcomere length.

Series [2] concerns brachialis muscle after NBPI. Description: Brachialis sarcomere length (muscle length) 4 weeks post-NBPI. The class given is in vivo, mice. As to conditions: 0.3 mg/kg, P8 to P33. On the procedure: Sarcomere lengths were measured from single muscle fibers, acquiring 6 images per fiber by differential interference contrast (DIC) microscopy on a Nikon Eclipse Ti-E inverted microscope with the Plan Apo λ40× objective (Nikon Instruments), Xyla 4.2 megapixel, 16-bit sCMOS monochromatic camera (Andor/Oxford Instruments) and NIS-Elements imaging software (Nikon Instruments). A series of 10 sarcomeres were measured per image in AxioVision software and an average sarcomere length was then determined for each fiber.
Mouse limbs harvested 4 weeks post-NBPI were processed on cork at 90° elbow flexion (confirmed by digital x-ray) prior to fixation in 10% NBF as described previously^16. […]
Mice were treated either with saline (as the vehicle; 0.9% Sodium Chloride Injection USP, Hospira), [Gly^14]-Humanin G ([Gly14]-HN; 1 μg/dose; H6161, Sigma-Aldrich) alone or co-administered with Bortezomib (0.2-0.4 mg/kg body weight; 5043140001, Sigma-Aldrich) by IP injection starting immediately post-operative or delayed by 3/7 days (P8/12 start), and injected every other day with sacrifice at 4 weeks post-NBPI (24 h following the last IP injection). […] Deficits in motor function were confirmed as described above, and measurement of shoulder and elbow range of motion was measured immediately post-sacrifice^16 with blinding to the treatment group. […]

Series [3] concerns elbow and shoulder contractures after neonatal brachial plexus injury (NBPI). As to the kind of experiment: Elbow and shoulder contracture severity (range of motion) in mouse model of NBPI. It is filed as in vivo, mice. The following applies: for contracture severity (efficacy): compared to 0.4 mg/kg from P5; for shoulder and elbow contracture severity: 4 weeks after NBPI.
Text: All animal procedures were approved by Cincinnati Children's Hospital Medical Center's Institutional Animal Care and Use Committee. Unilateral global (C5-T1) NBPIs were created by surgical extraforaminal nerve root excision in 5-day-old CD-1 mice (Charles River) under general anesthesia. Deficits in motor function were validated post-operatively and again prior to sacrifice to ensure only animals with permanent motor deficits were included for analysis. Elbow and shoulder (where indicated) range of motion were measured immediately post-sacrifice using a validated digital photography technique in order to confirm the presence of elbow flexion and shoulder internal rotation contractures^16. Mice were euthanized by CO2 asphyxiation, except at postnatal day 5 and 12 time points, where isoflurane overdose was utilized.
as §1

“Also recorded” adds a separate entry of the source.

Regarding `CC(C)C[C@H](NC(=O)[C@H](Cc1ccccc1)NC(=O)c1cnccn1)B(O)O` [Bortezomib, ([1R)-3-methyl-1-[[(2S)-1-oxo-3-phenyl-2-[(pyrazinylcarbonyl)amino]propyl]amino]butyl]-boronic acid], the mortality entry is on record as “eliminated mortality” in series [1] (0.2 mg/kg, P5 to P33); “partially improved mortality” in series [1] (0.3 mg/kg, P5 to P33, compared to 0.4 mg/kg from P5); “caused mortality, mostly in the first week of treatment” in series [1] (0.4 mg/kg every other day, P5 to P33); “partially improved mortality” in series [1] (0.4 mg/kg, P8 to P33, compared to 0.4 mg/kg from P5); “eliminated mortality” in series [1] (0.4 mg/kg, P12-P33). Moreover, the “mortality (early death)” value in series [1] (0.3 mg/kg, P8 to P33) is on record as “minimal early death”. Also, the “reduction in the sarcomere elongation caused by NBPI (rescue of brachialis length)” value in series [2] came out at 70%. For the same compound, in series [2], the “sarcomere length in the brachialis” value is on record as “preserves muscle length”. Further, the contracture severity result in series [3] (0.2 mg/kg, P5 to P33) is reported as “less severe contractures compared to saline they were not as efficacious as 0.4 mg/kg Bortezomib administered beginning at P5”; in series [3] (0.4 mg/kg, P12-P33), “less severe contractures compared to saline they were not as efficacious as 0.4 mg/kg Bortezomib administered beginning at P5”. Also, the “contracture severity (efficacy)” value in series [3] (0.3 mg/kg, P5 to P33) is given as “maintained efficacy”; in series [3] (0.4 mg/kg, P8 to P33), “maintained efficacy”. In addition, the prevention of contractures entry in series [3] (0.3 mg/kg, P8 to P33) is on record as “optimal efficacy in prevention of contractures; also recorded: lack of contractures”. Also, in series [3] (0.4 mg/kg every other day IP, P5 to P33, co-administered with [Gly14]-Humanin, vs saline), the “shoulder and elbow contracture severity” value was “significantly reducing shoulder and elbow contracture severity; also recorded: corrected”. In series [3] (0.2-0.4 mg/kg following NBPI), the “prevention of contractures, dose dependence” value is on record as “prevents contractures in a dose-dependent manner”.

Consider [Gly^14]-Humanin, for which the “shoulder and elbow contracture severity” value in series [3] ([Gly14]-Humanin alone, 1 μg/dose IP every other day) was “no effect alone”.
